# T1: concentrative nucleoside transporter 3 (CNT3) (Homo sapiens, UniProt Q9HAS3)
# T1 construct: gene SLC28A3
# T1 sequence (Q9HAS3 1-691): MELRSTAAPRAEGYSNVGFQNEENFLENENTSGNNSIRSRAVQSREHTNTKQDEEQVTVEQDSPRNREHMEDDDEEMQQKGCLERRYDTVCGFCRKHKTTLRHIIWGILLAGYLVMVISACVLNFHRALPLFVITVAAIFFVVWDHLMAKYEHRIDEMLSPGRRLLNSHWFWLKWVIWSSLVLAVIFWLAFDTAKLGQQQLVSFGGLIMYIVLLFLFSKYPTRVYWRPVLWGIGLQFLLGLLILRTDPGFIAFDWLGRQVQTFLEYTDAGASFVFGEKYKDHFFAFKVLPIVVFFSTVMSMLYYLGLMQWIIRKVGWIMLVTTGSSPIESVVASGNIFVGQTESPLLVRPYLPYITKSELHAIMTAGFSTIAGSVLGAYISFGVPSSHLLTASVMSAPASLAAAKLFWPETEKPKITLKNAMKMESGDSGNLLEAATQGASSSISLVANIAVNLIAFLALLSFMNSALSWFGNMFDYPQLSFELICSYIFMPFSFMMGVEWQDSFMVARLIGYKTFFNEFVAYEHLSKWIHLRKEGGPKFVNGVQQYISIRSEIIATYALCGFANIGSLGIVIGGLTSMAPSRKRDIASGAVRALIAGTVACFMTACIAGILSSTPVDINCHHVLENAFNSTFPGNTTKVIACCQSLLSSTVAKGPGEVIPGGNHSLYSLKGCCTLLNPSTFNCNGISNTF
# T2: ecto-5'-nucleotidase/CD73 (Homo sapiens, UniProt P21589)
# T2 construct: gene NT5E
# T2 sequence (P21589 27-549): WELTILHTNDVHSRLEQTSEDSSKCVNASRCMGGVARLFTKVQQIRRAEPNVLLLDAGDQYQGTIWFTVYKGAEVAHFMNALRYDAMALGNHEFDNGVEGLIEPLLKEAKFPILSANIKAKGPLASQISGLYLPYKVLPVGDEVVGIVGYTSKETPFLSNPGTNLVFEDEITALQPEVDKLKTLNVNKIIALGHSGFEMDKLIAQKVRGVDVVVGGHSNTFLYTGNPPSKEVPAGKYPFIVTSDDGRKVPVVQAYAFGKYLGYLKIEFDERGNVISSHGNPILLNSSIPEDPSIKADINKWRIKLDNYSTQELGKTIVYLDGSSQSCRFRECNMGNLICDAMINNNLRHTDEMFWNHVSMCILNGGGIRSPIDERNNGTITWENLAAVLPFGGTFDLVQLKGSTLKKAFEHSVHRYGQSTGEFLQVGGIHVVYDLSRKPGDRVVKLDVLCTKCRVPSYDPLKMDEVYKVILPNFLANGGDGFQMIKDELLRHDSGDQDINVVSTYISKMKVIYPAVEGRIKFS
# Legend:
# [1] = molecular target: T1, concentrative nucleoside transporter 3 (CNT3); test: radiolabelled uptake ([…]) in COS-7 cells transiently expressing CNT3 vs mock; format: cell-based
# [2] = molecular target: T2, ecto-5'-nucleotidase/CD73; test: phosphate release from […] dAMP in COS-7 cells expressing CD73
# [3] = molecular target: T1, concentrative nucleoside transporter 3 (CNT3); test: radiolabelled uptake ([…]) in COS-7 cells transiently expressing CNT3 vs empty vector; format: cell-based
# [4] = substrate: Nc1ncnc2c1ncn2C1CC(O)C(CO)O1; test: cells, lysate or membranes; conditions: Na+
# [5] = substrate: Nc1ncnc2c1ncn2[C@H]1C[C@H](O)[C@@H](COP(=O)(O)O)O1; test: cells, lysate or membranes; conditions: Na+
molecule,measurement,setting,value
Cc1cn([C@H]2C[C@H](O)[C@@H](CO)O2)c(=O)[nH]c1=O [thymidine],radiolabelled uptake (10 nM) in COS-7 cells transiently expressing CNT3 vs mock,[1],"Transfection of CNT3 cDNA into COS-7 cells resulted in an increased uptake of [^3H]thymidine, a typical substrate of CNT3"
Nc1ncnc2c1ncn2[C@H]1C[C@H](O)[C@@H](COP(=O)(O)O)O1 [2'-deoxyadenosine 5'-monophosphate],phosphate release from 10 μM dAMP in COS-7 cells expressing CD73,[2],the phosphate release from dAMP was significantly increased by the introduction of CD73 into COS-7 cells
Nc1ncnc2c1ncn2[C@@H]1O[C@H](COP(=O)(O)O)[C@@H](O)[C@H]1O [Adenosine 5'-monophosphate],radiolabelled uptake (10 nM) in COS-7 cells transiently expressing CNT3 vs empty,[3],enhanced cellular uptake of [^3H]AMP with the introduction of CNT3 alone was greater than that of [^3H]dAMP
concentrative nucleoside transporter 3 (CNT3) (Homo sapiens) (protein) MELRSTAAPRAEGYSNVGFQNEENFLENENTSGNNSIRSRAVQSREHTNTKQDEEQVTVEQDSPRNREHMEDDDEEMQQKGCLERRYDTVCGFCRKHKTTLRHIIWGILLAGYLVMVISACVLNFHRALPLFVITVAAIFFVVWDHLMAKYEHRIDEMLSPGRRLLNSHWFWLKWVIWSSLVLAVIFWLAFDTAKLGQQQLVSFGGLIMYIVLLFLFSKYPTRVYWRPVLWGIGLQFLLGLLILRTDPGFIAFDWLGRQVQTFLEYTDAGASFVFGEKYKDHFFAFKVLPIVVFFSTVMSMLYYLGLMQWIIRKVGWIMLVTTGSSPIESVVASGNIFVGQTESPLLVRPYLPYITKSELHAIMTAGFSTIAGSVLGAYISFGVPSSHLLTASVMSAPASLAAAKLFWPETEKPKITLKNAMKMESGDSGNLLEAATQGASSSISLVANIAVNLIAFLALLSFMNSALSWFGNMFDYPQLSFELICSYIFMPFSFMMGVEWQDSFMVARLIGYKTFFNEFVAYEHLSKWIHLRKEGGPKFVNGVQQYISIRSEIIATYALCGFANIGSLGIVIGGLTSMAPSRKRDIASGAVRALIAGTVACFMTACIAGILSSTPVDINCHHVLENAFNSTFPGNTTKVIACCQSLLSSTVAKGPGEVIPGGNHSLYSLKGCCTLLNPSTFNCNGISNTF,Km,[4],56.3 ± 7.0 µM
same,Km,[5],59.6 ± 3.8 µM
